{"source": "patent US8152784B2", "about": "“Method for treating or preventing steroid-induced glaucoma” (Wisconsin Alumni Research Foundation, priority 2005, dated 2012)", "key": {"[1]": {"system": "human trabecular meshwork cells", "assay": "CLAN formation in cultured human trabecular meshwork cells spread on coated coverslips, immunofluorescence microscopy", "format": "cell-based", "conditions": "adsorbed substrate on coverslip, cells spread three hours", "protocol": "(§1) Cultured, diploid human trabecular meshwork cells obtained from trabecular meshwork explants were plated on coverslips coated with extracellular matrix materials, including poly-L-lysine (20 nM in PBS), fibronectin (100 nM in PBS), type I collagen (20 nM in PBS), type IV collagen (20 nM in PBS), vitronectin (20 nM in PBS), vascular cell adhesion molecule (VCAM-1, an α4β1 ligand; 20 nM in PBS), fibronectin III7-10 domain (an α5β1 ligand; 20 nM in PBS), fibronectin III12-14 domain (20 nM in PBS), or fibronectin IICS domains (20 nM in PBS), or activating antibodies to β1 (anti-B3B11; Chemicon Int'l, Inc.; Temecula, Calif.; 10 μg/ml), β3 (anti-AP-5; The Blood Center of Southeastern Wisconsin; Milwaukee, Wis.; 8 μg/ml), or α2β1 (anti-JBS2; Chemicon Int'l, Inc.; 6 μg/ml) integrins. In experiments using antibodies as substrates, coverslips were pre-coated with 1:100 unconjugated goat anti-mouse IgG (Jackson Immunoresearch, Inc.; West Grove, Pa.). In some instances, anti-β3 antibodies were used as soluble ligands. […]\nCLAN formation was assessed by immunofluorescence microscopy. […] Anti-F-actin was detected using either Alexa 488 conjugated goat anti-rabbit IgG or Alexa 488 conjugated donkey anti-rabbit IgG. All monoclonal antibodies were detected using Alexa 546 conjugated goat anti-mouse IgG."}, "[2]": {"system": "trabecular meshwork cells", "assay": "CLAN formation in trabecular meshwork cells on fibronectin-coated cover slips with Src kinase inhibitor", "format": "cell-based, human", "conditions": "PP2 20 μM", "protocol": "as §1\nCLAN formation was assessed by immunofluorescence microscopy. […] Anti-F-actin was detected using either Alexa 488 conjugated goat anti-rabbit IgG or Alexa 488 conjugated donkey anti-rabbit IgG. All monoclonal antibodies were detected using Alexa 546 conjugated goat anti-mouse IgG. […]"}}}
{"compound": "fibronectin", "values": [{"measurement": "CLAN formation, % of the cells", "setting": "[1]", "value": 13, "unit": "%"}]}
{"compound": "CC(C)(C)n1nc(-c2ccc(Cl)cc2)c2c(N)ncnc21", "note": "[PP2]", "values": [{"measurement": "CLAN formation, % of cells", "setting": "[2]; absence of soluble anti-β3, control cells 10%", "value": 0, "unit": "%"}, {"measurement": "CLAN formation, % of cells", "setting": "[2]; presence of soluble anti-β3, control cells 30%", "value": 1, "unit": "%"}]}
